The record followed here is patent publication US10851069B2, “Compositions of crystallized hydrophobic compounds and methods of making and using same” (Massachusetts Institute of Technology, priority 2016, dated 2020).

The subject of data set [1] is C57BL/6 mice. Nature of the data set: Naked (non-encapsulated) drug crystals injected IP with 500 μm alginate spheres, 2 weeks. Format: in vivo. The procedure:
Naked crystals of GW2580 or saline-only (no drug control) were delivered intraperitoneally along with 500 μm alginate spheres for 2 weeks to C57BL/6 mice. […] Brightfield and fluorescence imaging was used to emphasize the respective presence or lack of fibrotic overgrowth on retrieved alginate spheres from either saline (control) or crystalline GW2580 treatment groups (FIG. 17C). […] GW2580 crystal testing (at doses of 0.5 and 5 mg/SC site) was also extended into the SC implant space with other immunogenic materials, ceramic glass (GL) and polymer polystyrene (PS). […] All animal protocols were approved by the MIT Committee on Animal Care, and all surgical procedures and post-operative care was supervised by MIT Division of Comparative Medicine veterinary staff. Immune-competent male non-diabetic or STZ-induced diabetic C57BL/6 mice (Jackson Laboratory, Bar Harbor, Me.) were anesthetized with 3% isoflurane in oxygen and had their abdomens shaved and sterilized using betadine and isopropanol. Preoperatively, all mice also received a 0.05 mg/kg dose of buprenorphine subcutaneously as a pre-surgical analgesic, along with 0.3 mL of 0.9% saline subcutaneously to prevent dehydration. A […] incision was made along the midline of the abdomen and the peritoneal lining was exposed using blunt dissection. The peritoneal wall was then grasped with forceps and a 0.5-1 mm incision was made along the linea alba. A desired volume of spheres (all materials without islets, as well as SLG20 spheres encapsulating rat islets) were then loaded into a sterile pipette and implanted into the peritoneal cavity through the incision. The incision was then closed using 5-0 taper-tipped polydioxanone (PDS II) absorbable sutures. The skin was then closed over the incision using a wound clip and tissue glue. At desired time points post-implantation or transplantation (with encapsulated islets), as specified in figures, mice were euthanized by CO2 administration, followed by cervical dislocation. In certain instances, 5 ml of ice cold PBS was first injected in order perform an intraperitoneal lavage to rinse out and collect free-floating intraperitoneal immune cells. An incision was then made using the forceps and scissors along the abdomen skin and peritoneal wall, and intraperitoneal lavage volumes were pipetted out into fresh 15 ml falcon tubes (each prepared with 5 ml of RPMI cell culture media). Next, a wash bottle tip was inserted into the abdominal cavity. KREBS buffer was then used to wash out all material spheres from the abdomen and into petri dishes for collection. After ensuring all the spheres were washed out or manually retrieved (if fibrosed directly to intraperitoneal tissues), they were transferred into 50 mL conical tubes for downstream processing and imaging. After intraperitoneal lavage and sphere retrieval, remaining fibrosed intraperitoneal tissues were also excised for downstream FACS and expression analyses. Single-cell suspensions of freshly excised tissues were prepared using a gentle MACS Dissociator (Miltenyi Biotec, Auburn, Calif.) according to the manufacturer's protocol. Single-cell suspensions were prepared in a passive PEB dissociation buffer (1×PBS, pH 7.2, 0.5% BSA, and 2 mM EDTA) and suspensions were passed through 70 μm filters (Cat. #22363548, Fisher Scientific, Pittsburgh, Pa.). This process removed the majority of cells adhered to the surface (>90%). […]

For data set [2], the system named is C57BL/6 mice. Description: Crystalline drug-loaded alginate capsules, long-term IP/SC implantation, prevention of fibrosis. The data set is classed as in vivo. As to conditions: crystalline form in alginate capsules, retrieved after 1, 3 and 6 months from IP space. The source says:
Lead compounds identified by screening the amorphous formulations (e.g., compounds of Formulae I-X, particularly LY215799, Dx, Curcumin, GW2580, QNZ and Ki20227) were studied for long-term release and prevention of fibrosis following encapsulation in crystalline form and implantation into the intraperitoneal (IP) space of C57BL/6 mice for long term testing. […] Drug extraction analysis by HPLC also determined that notable percentages (e.g., more than 50%) of the loaded drug remained within the retrieved capsules (FIG. 22D), particularly in the subcutaneous implanted samples. […] In contrast, capsules retrieved from the IP space 6 months post-implantation were identified with only 2-40% of the loaded drug remaining within the retrieved capsules.
All animal protocols were approved by the MIT Committee on Animal Care, and all surgical procedures and post-operative care was supervised by MIT Division of Comparative Medicine veterinary staff. Immune-competent male non-diabetic or STZ-induced diabetic C57BL/6 mice (Jackson Laboratory, Bar Harbor, Me.) were anesthetized with 3% isoflurane in oxygen and had their abdomens shaved and sterilized using betadine and isopropanol. Preoperatively, all mice also received a 0.05 mg/kg dose of buprenorphine subcutaneously as a pre-surgical analgesic, along with 0.3 mL of 0.9% saline subcutaneously to prevent dehydration. A […] incision was made along the midline of the abdomen and the peritoneal lining was exposed using blunt dissection. The peritoneal wall was then grasped with forceps and a 0.5-1 mm incision was made along the linea alba. A desired volume of spheres (all materials without islets, as well as SLG20 spheres encapsulating rat islets) were then loaded into a sterile pipette and implanted into the peritoneal cavity through the incision. The incision was then closed using 5-0 taper-tipped polydioxanone (PDS II) absorbable sutures. The skin was then closed over the incision using a wound clip and tissue glue.
At desired time points post-implantation or transplantation (with encapsulated islets), as specified in figures, mice were euthanized by CO2 administration, followed by cervical dislocation. In certain instances, 5 ml of ice cold PBS was first injected in order perform an intraperitoneal lavage to rinse out and collect free-floating intraperitoneal immune cells. An incision was then made using the forceps and scissors along the abdomen skin and peritoneal wall, and intraperitoneal lavage volumes were pipetted out into fresh 15 ml falcon tubes (each prepared with 5 ml of RPMI cell culture media). Next, a wash bottle tip was inserted into the abdominal cavity. KREBS buffer was then used to wash out all material spheres from the abdomen and into petri dishes for collection. After ensuring all the spheres were washed out or manually retrieved (if fibrosed directly to intraperitoneal tissues), they were transferred into 50 mL conical tubes for downstream processing and imaging. After intraperitoneal lavage and sphere retrieval, remaining fibrosed intraperitoneal tissues were also excised for downstream FACS and expression analyses.
For phase contrast imaging, retrieved materials were gently washed using Krebs buffer and transferred into 35 mm petri dishes for phase contrast microscopy using an Evos X1 microscope (Advanced Microscopy Group).
Immunofluorescence imaging was used to determine immune populations attached to spheres. […]

Molecules are shown by their SMILES.

For the compound `COc1ccc(COc2ccc(Cc3cnc(N)nc3N)cc2OC)cc1` [GW2580, 5-[[3-Methoxy-4-[(4-methoxyphenyl)methoxy]phenyl]methyl]-2,4-pyrimidinediamine], the “crystals in IP lavage liquid (differential interference contrast imaging)” value in the data set with C57BL/6 mice [1] (2 weeks after implantation, 1 week since last crystal injection) was “many crystals remained within the IP space”. In addition, the “fibrosis of retrieved alginate microspheres (phase contrast)” value is “fibrosis-free” in the data set on C57BL/6 mice [1] (daily amorphous drug, 3 mg/day, total 45 mg over 2 weeks); “fibrosis-free” in the data set on C57BL/6 mice [1] (naked drug crystals, 4.5 mg once per week, 9 mg total); “not effective” in the data set with C57BL/6 mice [1] (weekly amorphous drug). In addition, the “macrophage levels on microspheres (FACS)” value in the data set with C57BL/6 mice [1] (naked crystals, 2 weeks) is “significant reductions in macrophage levels”. Moreover, the “fibrosis by phase contrast imaging and confocal microscopy” value in the data set with C57BL/6 mice [2] is recorded as “fibrosis free”.
